Source: ChEMBL document CHEMBL5518246, “Discovery of Small Molecule Interleukin 17A Inhibitors with Novel Binding Mode and Stoichiometry: Optimization of DNA-Encoded Chemical Library Hits to In Vivo Active Compounds” (J Med Chem, 2024)
≈ marks a conversion by molar mass, not a printed value.

What was measured:
[1] = Metabolic stability in human liver microsomes assessed as unbound intrinsic clearance at 0.5 uM measured after 4 hrs; assay type: ADME, Microsome
[2] = Thermodynamic solubility of the compound in FaSSIF at pH 6.5 after 48 hrs by UHPLC analysis; assay type: ADME; conditions: read-out: Therm_solubility
[3] = Unbound plasma clearance in Sprague-Dawley rat at 1 mg/kg, iv measured after 24 hrs; assay type: ADME, organism-based; conditions: in vivo
[4] = Half life in Sprague-Dawley rat at 1 mg/kg, iv measured after 24 hrs; assay type: ADME, organism-based; conditions: in vivo
[5] = Volume of distribution at steady-state in Sprague-Dawley rat at 1 mg/kg, iv measured after 24 hrs; assay type: ADME, organism-based; conditions: in vivo, read-out: Vdss
[6] = Metabolic stability in rat liver microsomes assessed as unbound intrinsic clearance; assay type: ADME, Microsome
[7] = Drug uptake in IL17A-induced CXCL1 secretion in C57BL/6 mouse at 10 mg/kg, iv pretreated 1 hr before IL17A challenge measured after 2 hrs; assay type: ADME, organism-based; conditions: in vivo, read-out: Drug uptake
[8] = Thermodynamic solubility of the compound at pH 7.4 measured after 48 hrs by UHPLC analysis; assay type: physicochemical; conditions: buffer, read-out: Therm_solubility
[9] = Plasma clearance in Sprague-Dawley rat at 1 mg/kg, iv measured after 24 hrs; assay type: ADME, organism-based
[10] = Oral bioavailability in mouse at 1 mg/kg; assay type: ADME, organism-based; conditions: in vivo
[11] = Plasma clearance in iv dosed CD-1 mouse measured after 24 hrs; assay type: ADME, organism-based
[12] = Unbound plasma clearance in iv dosed CD-1 mouse measured after 24 hrs; assay type: ADME, organism-based; conditions: in vivo
[13] = Oral bioavailability in mouse at 10 mg/kg; assay type: ADME, organism-based; conditions: in vivo

Row | Structure (SMILES) | CL free [1] [mL/min/kg] | solubility thermodynamic at 48 h [2] [µg/mL] | CL free [3] [mL/min/kg] | half-life [4] [h] | Vd [5] [L/kg] | CL free [6] [mL/min/kg] | concentration at 1 h [7] [ng/mL] | solubility thermodynamic at 48 h [8] [µM] | clearance [9] [mL/min/kg] | bioavailability [10] [%] | clearance [11] [mL/min/kg] | CL free [12] [mL/min/kg] | bioavailability [13] [%]
1 | C[C@H](NC(=O)[C@]1(NC(=O)c2cc(Cl)c[nH]2)CO[C@H](c2ccccc2)C1)c1ncc2c(n1)CN(C1CCN(C)CC1)C2 | < 35 | 630 (≈ 1090 µM) | 48.3 | 3.3 | 5.9 | < 60 | 68 | 120 (≈ 69.4 µg/mL) | 21.7 | – | – | – | –
2 | C[C@H](NC(=O)[C@]1(NC(=O)c2cc(Cl)c(Cl)[nH]2)CO[C@H](c2ccc(F)cc2)C1)c1ncc2c(n1)CN(C1CCN(C)CC1)C2 | < 36.7 | – | 137 | 3.5 | 6.4 | – | 139 | 510 (≈ 322 µg/mL) | 21.7 | – | – | – | –
3 | C[C@H](NC(=O)[C@H](CCc1ccccc1)NC(=O)c1cc(Cl)c(Cl)[nH]1)c1cn2c(=O)n(C)cc(F)c2n1 | 163 | – | – | – | – | – | – | 4.5 (≈ 2.4 µg/mL) | – | 1.6 | 45 | 4830 | –
4 | C[C@H](NC(=O)[C@]1(NC(=O)c2cc(Cl)c(Cl)[nH]2)CO[C@H](c2ccccc2)C1)c1ncc2c(n1)CN(C1CCN(C)CC1)C2 | < 45 | 460 (≈ 751 µM) | 102 | 3.6 | 5 | < 76.7 | 108 | > 1000 | 18.3 | – | – | – | –
5 | COCc1ccc([C@@H]2C[C@](NC(=O)c3cc(Cl)c(Cl)[nH]3)(C(=O)N[C@@H](C)c3ncc4c(n3)CN(C3CCN(C)CC3)C4)CO2)cc1 | < 31.7 | – | 250 | 1.5 | 3.2 | < 53.3 | 85 | 60 (≈ 39.4 µg/mL) | 33.3 | – | – | – | –
6 | C[C@H](NC(=O)[C@]1(NC(=O)c2cc(Cl)c(Cl)[nH]2)CO[C@H](c2ccccc2)C1)c1ncc2c(n1)COC2 | 132 | 16 (≈ 31 µM) | 1430 | 0.47 | 1.4 | 1080 | 190 | 17 (≈ 8.78 µg/mL) | 46.7 | – | – | – | –
7 | C[C@H](NC(=O)[C@]1(NC(=O)c2cc(Cl)c(Cl)[nH]2)CO[C@H](c2ccccc2)C1)c1cn2c(=O)n(C)cc(F)c2n1 | 61.7 | – | – | – | – | – | – | 0.82 (≈ 0.46 µg/mL) | – | – | 33.3 | 1830 | 22
8 | C[C@H](NC(=O)[C@]1(NC(=O)c2cc(Cl)c(Cl)[nH]2)CO[C@H](c2ccccc2)C1)c1ncc2c(n1)CN([C@@H]1CCN(C)C1)C2 | 400 | – | – | – | – | – | – | > 1000 | – | – | – | – | –
9 | O=C(N[C@@H](CCc1ccccc1)C(=O)NCc1ncc(CO)cn1)c1cc(Cl)c(Cl)[nH]1 | 71.7 | – | – | – | – | – | – | 73 (≈ 33.8 µg/mL) | – | – | – | – | –
10 | C[C@H](NC(=O)[C@]1(NC(=O)c2cc(Cl)c(Cl)[nH]2)CO[C@H](c2cccc(C#N)c2)C1)c1ncc2c(n1)CN(C1CCN(C)CC1)C2 | < 38.3 | – | – | – | – | – | – | 654 (≈ 417 µg/mL) | – | – | – | – | –
11 | CN1Cc2cnc(CNC(=O)[C@H](CCc3ccccc3)NC(=O)c3cc(Cl)c(Cl)[nH]3)nc2C1 | 140 | – | – | – | – | – | – | 1.8 (≈ 0.877 µg/mL) | – | – | – | – | –
